Earlier results in PMC5111365 (The Analyst, 2016).
No end group written: not given here. *: point of attachment. 5FAM = O=C1OC2(c3ccc(O)cc3Oc3cc(O)ccc32)c2ccc(C(=O)*)cc21

Assays:
[1] = target: Abl-1 human recombinant protein (Homo sapiens, UniProt P00519); conditions: 12 nM kinase; data from previous work
[2] = 3 mg mL^-1 total protein, data from previous work

Sequence of Abl-1 human recombinant protein (P00519 whole entry): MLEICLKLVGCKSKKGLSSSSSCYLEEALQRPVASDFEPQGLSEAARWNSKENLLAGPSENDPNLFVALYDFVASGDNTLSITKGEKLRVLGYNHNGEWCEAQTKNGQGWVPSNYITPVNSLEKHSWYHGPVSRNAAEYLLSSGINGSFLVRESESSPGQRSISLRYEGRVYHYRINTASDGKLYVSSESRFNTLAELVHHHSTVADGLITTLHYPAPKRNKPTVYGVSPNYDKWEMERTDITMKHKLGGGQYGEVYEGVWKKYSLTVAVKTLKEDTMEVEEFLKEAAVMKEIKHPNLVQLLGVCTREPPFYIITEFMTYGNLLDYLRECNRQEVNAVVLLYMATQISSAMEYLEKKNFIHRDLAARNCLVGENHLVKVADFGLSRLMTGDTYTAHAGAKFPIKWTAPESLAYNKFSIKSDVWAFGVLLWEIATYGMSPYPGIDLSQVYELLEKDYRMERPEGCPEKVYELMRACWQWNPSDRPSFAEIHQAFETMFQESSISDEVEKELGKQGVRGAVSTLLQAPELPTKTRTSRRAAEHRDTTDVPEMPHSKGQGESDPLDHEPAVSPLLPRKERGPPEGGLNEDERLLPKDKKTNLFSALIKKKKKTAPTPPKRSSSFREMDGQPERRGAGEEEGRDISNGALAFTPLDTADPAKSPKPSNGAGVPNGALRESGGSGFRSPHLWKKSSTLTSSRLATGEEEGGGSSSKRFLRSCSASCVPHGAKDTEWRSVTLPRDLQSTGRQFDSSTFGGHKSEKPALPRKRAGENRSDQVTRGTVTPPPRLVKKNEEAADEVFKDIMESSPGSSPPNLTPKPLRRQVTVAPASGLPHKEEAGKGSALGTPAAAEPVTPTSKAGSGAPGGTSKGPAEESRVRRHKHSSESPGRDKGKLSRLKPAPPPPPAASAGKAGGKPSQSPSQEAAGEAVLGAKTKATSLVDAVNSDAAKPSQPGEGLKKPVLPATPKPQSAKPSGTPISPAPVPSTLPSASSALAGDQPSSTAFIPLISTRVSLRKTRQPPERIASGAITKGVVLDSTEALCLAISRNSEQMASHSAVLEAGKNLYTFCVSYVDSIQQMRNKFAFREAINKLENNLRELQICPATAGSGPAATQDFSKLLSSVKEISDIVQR

5FAM-GGAYAAPFKKKA [III-67B]
t50% P, time required for 50% of the peptide to be phosphorylated by Abl-1 kinase [1]: 190 min
t1/2, time at which 50% of the peptide was degraded in the cytosolic lysate [2]: 1.3 min
